Laboratory results taken from patent US9745348B2 (The University of Manchester, priority 2011, dated 2017).
Read-outs that look alike come from different tables or passages of the source. Where no end group is shown, it is not given here. The star is where a group is joined. FITC = O=C1OC2(c3ccc(O)cc3Oc3cc(O)ccc32)c2ccc(NC(=S)*)cc21; Ahx = NCCCCCC(=O)O

Legend:
[1] = system: E. coli, (EC) and S. aureus, (SA); assay: Bacterial growth by optical density, statements for both bacteria; type: cell-based, Escherichia coli; Staphylococcus aureus; conditions: 1 wt %; for antibacterial activity of surfactant alone: both SA and EC
Method: Bacteria E. coli, (EC) and S. aureus, (SA) were grown in LB media at 37° C. with continuous shaking for 24 hours. The bacterial concentration was then adjusted such that the absorbance at 600 (A600) was controlled to ca 0.2 unit. The bacteria suspensions with the peptides were incubated in 96-well tissue culture plates. The total medium volume in each well was […]. […] Controls with media only and media with bacteria only were run alongside the peptide bacteria mixed suspensions. Measurements were taken at time t=0, t=20 and t=72 hours using optical density cell plate reader. The optical density (OD) is representative of the relative amount of bacterial growth within the medium.
Interactions of bacteria E. coli, (EC) and S. aureus, (SA) with surfactants were also studied. The bacteria were grown in LB media at 37° C. with continuous shaking for 24 hours. The bacterial concentration was then adjusted such that the absorbance at 600 (A600) was controlled at ca 0.2 unit. The bacteria suspensions with surfactants were incubated in 96-well tissue culture plates. The total medium volume in each well was 200 μL. Again, surfactant concentrations of 1% were used. Controls with media only and media with bacteria only were run alongside the surfactant-bacteria mixed suspensions. Measurements were taken at time t=0, t=20 and t=72 hours using optical density cell plate reader again.

[2] = system: fibroblasts Adult (HDFa) cells; assay: MTT viability of fibroblasts over three days; type: cell-based, human
Method: (§1) MTT assay: Cell viability and proliferation is widely assessed by the MTT assay as already described previously.
(§2) The fibroblasts cells, Neonatal (HDFn) and Adult (HDFa), were both grown until greater than 80% confluent. […] After 24 hour incubation the culture medium was replaced with fresh medium containing an appropriate amount of the peptide for investigation.
(§3) The viability of the fibroblasts, Adult (HDFa) and Neonatal (HDFn) cells in the presence of surfactants was tested by MTT assay over three days relative to control wells containing cells only.

[3] = system: NIH 3T3 cells co-cultured with B. subtilis 168 or HL60 cancer cells; assay: Co-culture selectivity, distribution of FITC-labeled peptide by fluorescence microscopy; type: cell-based; conditions: 20 μM, 1 hour incubation
Method: To further verify the selective cytotoxicity of G(IIKK)3I-NH2 (SEQ ID NO: 3) in vitro, we added the FITC-labeled G(IIKK)3I-NH2 (SEQ ID NO: 3) to the two co-culture systems containing mammalian cell line NIH 3T3 (model host) and bacteria B. subtilis 168 or cancer cell line (HL 60). Specifically, NIH 3T3 cells were cultured at 37° C. with 5% CO2 in IMDM supplemented with 10% FBS. After reaching an over 80% confluence, the cells were transferred into a 6-well plate containing sterile coverslips at bottom to a final concentration of 1×10^5 cells/well. After overnight culture at 37° C., the medium was replaced with 1 ml B. subtilis 168 suspended in PBS with a density of 1×10^6 CFU/ml or 1 ml HL 60 cells suspended in PBS with a density of 1×10^5 cells/ml. Meanwhile, FITC-labeled G(IIKK)3I-NH2 (SEQ ID NO: 3) dissolved in the same buffer was also added to each well to the final concentration of 20 μM. […]
To further confirm the selective responses and cytotoxicity of the peptides, FITC-labeled G(IIKK)3I-NH2 (SEQ ID NO: 3) was synthesized according to the method described previously by Jullian M, et al (Julian et al 2009). […] After incubation for 1 hour, the distribution of FITC-G(IIKK)3I-NH2 (SEQ ID NO: 3) was observed using fluorescence microscopy and the results are shown in FIG. 12. […]

[4] = system: human red blood cells (hRBCs); assay: Hemolytic activity, hemoglobin release; type: cell-based; conditions: up to 250 μM, 1 h at 37° C.
Method: Peptide hemolytic activities were measured by determining hemoglobin release by 4% (v/v) suspensions of fresh human erythrocytes at 540 nm. Fresh human red blood cells (hRBCs) from volunteers were centrifuged and washed three times with PBS (pH7.4). 100 μL of hRBCs suspended in PBS at 8% (v/v) were mixed with 100 µL of different series of 2-fold diluted peptides in a sterile 96-well plate. The plates were incubated for 1 h at 37° C., and centrifuged at 1000 g for 5 min. 100 μL aliquots of the supernatant were transferred to new 96-well plates, and hemoglobin release monitored by measuring supernatant absorbance at 540 nm with a microplate ELISA Reader. As negative and positive controls, hRBCs in PBS and 0.1% Triton X-100 were employed. The hemolysis percentage was calculated using the follow equation: % hemolysis=[(Abs540 nm with peptide−Abs540 nm in PBS)/[(Abs540 nm with 0.1% Triton X-100−Abs540 nm in PBS)×100 Observing Bacterial Membrane Lysis by Fluorescence Microscopy

[5] = system: E. coli DH5α and B. subtilis 168; type: cell-based, Escherichia coli; Bacillus subtilis; conditions: 1 h
Method: To determine antibacterial activity of peptides, survival rate curves were constructed. Bacteria (E. coli DH5α or B. subtilis 168) were incubated with peptide at varying peptide concentrations at 37° C. for 1 h. Aliquots of 2 μL were withdrawn, diluted and spread on agar plates. After overnight incubation at 37° C., the surviving bacteria were expressed as the percentage of total cells, and survival curves drawn (FIG. 4). Controls were bacteria without peptide. The minimal inhibitory concentrations (MICs) of each peptide were measured by standard microdilution method. The test was done in sterile 96-well plates in a final volume of 200 μL. Aliquots (100 μL) of a bacterial suspension at 1×10^5 (colony-forming units (CFU)/ml) in culture medium were added to […] peptide solution (2-fold serial dilutions in 10 mM PBS buffer). […] The MIC was defined as the lowest concentration of peptide for which there was no visible growth. Each determination was performed at least three times.

[6] = MTT viability of fibroblasts over three days; type: cell-based, human; conditions: human, adult fibroblasts (HDFa cells)
Method: as §1, §2, §3

[7] = system: cytokine genes IL2 and IL8 of human lymphocytes; conditions: 10 μM, 1 h
Method: RT-PCR (Reverse Transcription Polymerase Chain Reaction and Real Time Polymerase Chain Reaction): To determine the related gene transcriptional activities about HeLa cell apoptosis and the lymphocyte immunological effects, RT-PCR assays were performed. […] Total RNA from the cells was extracted by Trizol following the manufacturer's instructions (Invitrogen, Britain). Total RNA (1 μg) was subject to cDNA synthesis with random primers (PrimeScript Reverse Transcriptase, Takara, Japan). Real-Time PCR was performed with power SYBR green PCR Master Mix kit (Applied Biosystems, American) using a 7500 real-time PCR system (Applied Biosystems, American) according to the protocol of the manufacturer, and the data were analyzed by relative quantitation of the 2^−ΔΔCt method. Transcriptional levels of related genes were normalized to the values of the house keeping gene β-actin.

[8] = system: HeLa and HL60 cancer cell lines; conditions: 24 h
Method: Antitumor activities of peptides were measured using the 3-(4,5-dimethylthiazol-2-yl)-2,-diphenyl tetrazolium bromide (MTT) assay, and the IC50 value was calculated as the concentration of peptide that induced 50% growth inhibition compared to the untreated control.
HeLa and HL60 cells were seeded in 96-well plates (10^5 cells/well) in a complete medium [Iscove's modified dulbecco's medium (IMDM)] with 10% fetal bovine serum (FBS) for 24 h before peptide treatment. […] Following incubation with peptides, 20 μL of a 5 mg/ml solution MTT reagent was added to each well and incubated for 4 h at 37° C. After removing the supernatant, 150 μL of dimethyl sulfoxide (DMSO) was added to dissolve the formazan crystals that remained in the wells. The absorbance was determined using a microplate ELISA Reader at 570 nm. Wells without cells for blanking the spectrophotometer and the cells without peptides were taken as negative controls.

in vitro = type: cell-based; conditions: human, neonatal fibroblasts (HDFn cells)
Method: as §1
The fibroblasts cells, Neonatal (HDFn) and Adult (HDFa), were both grown until greater than 80% confluent. The cells were then harvested and seeded into micro well plate at cell densities of 5000 cells/well in a volume […] of medium. After 24 hour incubation the culture medium was replaced with fresh medium containing an appropriate amount of the peptide for investigation.

For `CCCCCCCCCCCC[N+](C)(C)C.[Br-]` [Helix C12TAB, Dodecyl trimethylammonium bromide], the “growth of bacteria after 72 hours” value ([1]; 72 hours) was “no growth of bacteria”, the “antibacterial activity of surfactant alone” value (from here on “antibacterial activity”) [1] was “significant antibacterial activity” and the “MTT results (relative MTT reading)” value ([2]; HDFa, surfactant 1%, Day 1) was 0.00. The “MTT results (relative MTT reading)” value ([2]; HDFa, surfactant 1%, Day 2) was 0.00 and the “MTT results (relative MTT reading)” value ([2]; HDFa, surfactant 1%, Day 3) was 0.00.

In the case of “FITC-G(IIKK)3I-NH2: N-terminal FITC-labeled G(IIKK)3I-NH2 with 6-aminohexanoic acid (Ahx) between the last amino acid and the thiourea linkage ({FITC-Ahx}-GIIKKIIKKIIKKI-NH2; SMILES CC[C@H](C)[C@H](NC(=O)[C@H](CCCCN)NC(=O)[C@H](CCCCN)NC(=O)[C@@H](NC(=O)[C@@H](NC(=O)[C@H](CCCCN)NC(=O)[C@H](CCCCN)NC(=O)[C@@H](NC(=O)[C@@H](NC(=O)[C@H](CCCCN)NC(=O)[C@H](CCCCN)NC(=O)[C@@H](NC(=O)[C@@H](NC(=O)CNC(=O)CCCCCNC(=S)Nc1ccc2c(c1)C(=O)OC21c2ccc(O)cc2Oc2cc(O)ccc21)[C@@H](C)CC)[C@@H](C)CC)[C@@H](C)CC)[C@@H](C)CC)[C@@H](C)CC)[C@@H](C)CC)C(N)=O)”, the “distribution of green fluorescence of FITC-labeled peptide in co-culture” value [3] is reported as “concentrated in the bacterial clusters or the HL60 cells but not in any part of the 3T3 cells”.

With GIIKKI-NH2 [G(IIKK)I-NH2] the hemolytic activity [4] was “inactive”.

With “GIIKKIIKKIIKKI-NH2 [Helix G3, G(IIKK)3 I-NH2]” the “MICs (minimum inhibitory concentrations)” value [5] was 0.5 to 8 µM, the viability at 24 h, 5 µM [6] was 91% and the viability at 24 h, 25 µM [6] was 88%. The viability at 24 h, 50 µM [6] was 87%, the viability at 24 h, 100 µM [6] was 78% and the viability at 48 h, 5 µM [6] was 92%. For the same molecule, the viability at 48 h, 25 µM [6] was 85%, the viability at 48 h, 50 µM [6] was 84% and the viability at 48 h, 100 µM [6] was 75%. It also gave a viability at 72 h, 5 µM [6] of 81%, a viability at 72 h, 25 µM [6] of 80% and a viability at 72 h, 50 µM [6] of 75%. For the same molecule, the viability at 72 h, 100 µM [6] was 71%, the “relative transcriptional levels of IL2 and IL8 of lymphocytes” value [7] was “lower or almost equal to that of control cells” and the IC50 [8] was 4 to 25 µM.

With “GIIKKIIKKIIKKIIKKI-NH2 [Helix G4, G(IIKK)4 I-NH2]” the “MICs (minimum inhibitory concentrations)” value [5] was 0.5 to 8 µM, the viability at 24 h, 5 µM [6] was 90% and the viability at 24 h, 25 µM [6] was 87%. The viability at 24 h, 50 µM [6] was 85%, the viability at 24 h, 100 µM [6] was 81% and the viability at 48 h, 5 µM [6] was 84%. For the same molecule, the viability at 48 h, 25 µM [6] was 81%, the viability at 48 h, 50 µM [6] was 78% and the viability at 48 h, 100 µM [6] was 70%. The viability at 72 h, 5 µM [6] was 81%, the viability at 72 h, 25 µM [6] was 78% and the viability at 72 h, 50 µM [6] was 65%. For the same molecule, the viability at 72 h, 100 µM [6] was 55%, the viability at 24 h, 5 µM (in vitro) was 95% and the viability at 24 h, 25 µM (in vitro) was 85%. It also gave a viability at 24 h, 50 µM (in vitro) of 81%, a viability at 24 h, 100 µM (in vitro) of 73% and a viability at 48 h, 5 µM (in vitro) of 92%. It also gave a viability at 48 h, 25 µM (in vitro) of 77%, a viability at 48 h, 50 µM (in vitro) of 71% and a viability at 48 h, 100 µM (in vitro) of 65%. For the same molecule, the viability at 72 h, 5 µM (in vitro) was 79%, the viability at 72 h, 25 µM (in vitro) was 74% and the viability at 72 h, 50 µM (in vitro) was 65%. The viability at 72 h, 100 µM (in vitro) was 53% and the IC50 [8] was 4 to 25 µM.

In the case of cocamidopropyl aetaine [Tt], the “antibacterial activity” value [1] is reported as “some antibacterial influence”.

In the case of sodium lauryl ether sulphate [SLES], the “antibacterial activity” value [1] is reported as “some antibacterial influence” and the “MTT results (relative MTT reading)” value [2] is reported as 0.00.
